Data reported in ChEMBL document CHEMBL3600372, “Scapairrins A-Q, Labdane-Type Diterpenoids from the Chinese Liverwort Scapania irrigua and Their Cytotoxic Activity” (J Nat Prod, 2015).

Legend:
A549 = experiment: Cytotoxicity against human A549 cells after 24 hrs by MTT assay; format: functional, cell-based; conditions: A549, 24 h
MDA-MB-231 = experiment: Cytotoxicity against human MDA-MB-231 cells after 24 hrs by MTT assay; format: functional, cell-based; conditions: MDA-MB-231, 24 h
A2780 = experiment: Cytotoxicity against human A2780 cells after 24 hrs by MTT assay; format: functional, cell-based; conditions: A2780, 24 h
HeLa = experiment: Cytotoxicity against human HeLa cells after 24 hrs by MTT assay; format: functional, cell-based
HT-29 = experiment: Cytotoxicity against human HT-29 cells after 24 hrs by MTT assay; format: functional, cell-based; conditions: HT-29, 24 h
HUVEC = experiment: Cytotoxicity against human HUVEC after 24 hrs by MTT assay; format: cell-based

Structure (SMILES)	IC50 (A549)	IC50 (MDA-MB-231)	IC50 (A2780)	IC50 (HeLa)	IC50 (HT-29)	IC50 (HUVEC)
C=C([C@H](C)O)[C@@H]1C[C@H]2[C@@](C)(CC[C@@]3(O)C(C)(C)CCC[C@]23C)O1	> 10 µM	> 10 µM	> 10 µM	> 10 µM	> 10 µM	> 10 µM
C=C([C@@H]1C[C@H]2[C@@](C)(CC[C@@]3(O)C(C)(C)CCC[C@]23C)O1)[C@@H](C)O	> 10 µM	> 10 µM	> 10 µM	> 10 µM	> 10 µM	> 10 µM
C=C([C@H](C)O)[C@@H]1C[C@H]2[C@@](C)(CC[C@@]3(O)C(C)(C)CCC(=O)[C@]23C)O1	> 10 µM	> 10 µM	> 10 µM	> 10 µM	> 10 µM	> 10 µM
C=C([C@@H]1C[C@H]2[C@@](C)(CC[C@@]3(O)C(C)(C)CCC(=O)[C@]23C)O1)[C@@H](C)O	> 10 µM	> 10 µM	> 10 µM	> 10 µM	> 10 µM	> 10 µM
C=C([C@H](C)O)[C@@H]1C[C@@H]2[C@@]3(C)[C@@H](O)CCC(C)(C)[C@]3(O)CC[C@@]2(C)O1	> 10 µM	> 10 µM	> 10 µM	> 10 µM	> 10 µM	> 10 µM
C=C([C@@H]1C[C@@H]2[C@@]3(C)[C@@H](O)CCC(C)(C)[C@]3(O)CC[C@@]2(C)O1)[C@@H](C)O	> 10 µM	> 10 µM	> 10 µM	> 10 µM	> 10 µM	> 10 µM
C=C(C(C)=O)[C@@H]1C[C@@H]2[C@@]3(C)[C@@H](O)CCC(C)(C)[C@]3(O)CC[C@@]2(C)O1	> 10 µM	4.1 µM	5.3 µM	6.6 µM	5.8 µM	> 10 µM
C=C(C(C)=O)[C@H]1C[C@@H]2[C@@]3(C)[C@@H](O)CCC(C)(C)[C@]3(O)CC[C@@]2(C)O1	> 10 µM	5.4 µM	4.4 µM	5.5 µM	7 µM	> 10 µM
C=C(C(C)=O)[C@@H]1C[C@H]2[C@@](C)(CC[C@@]3(O)C(C)(C)CCC(=O)[C@]23C)O1	> 10 µM	5 µM	7.8 µM	8.7 µM	6.8 µM	> 10 µM
C=C(C(C)=O)[C@@H]1C[C@H]2[C@@](C)(CC[C@@]3(O)C(C)(C)CCC[C@]23C)O1	> 10 µM	4.2 µM	8.6 µM	8.3 µM	5.2 µM	3 µM
C/C=C(\C)[C@@H]1C[C@H]2[C@@](C)(CC[C@@]3(O)C(C)(C)CCC[C@]23C)O1	> 10 µM	> 10 µM	> 10 µM	> 10 µM	> 10 µM	> 10 µM
C/C=C(\C)[C@@H]1C[C@H]2[C@@](C)(CC[C@@]3(O)C(C)(C)CCC(=O)[C@]23C)O1	> 10 µM	> 10 µM	> 10 µM	> 10 µM	> 10 µM	> 10 µM
C[C@H]1O[C@]1(C)C(=O)C[C@@H]1[C@@]2(C)[C@@H](O)CCC(C)(C)[C@]2(O)CC[C@@]1(C)O	> 10 µM	> 10 µM	> 10 µM	> 10 µM	> 10 µM	> 10 µM
C[C@@H]1O[C@@]1(C)C(=O)C[C@@H]1[C@@]2(C)[C@@H](O)CCC(C)(C)[C@]2(O)CC[C@@]1(C)O	> 10 µM	> 10 µM	> 10 µM	> 10 µM	> 10 µM	> 10 µM
C[C@@H]1O[C@@]1(C)C(=O)C[C@H]1[C@](C)(O)CC[C@@]2(O)C(C)(C)CCC[C@]12C	> 10 µM	> 10 µM	> 10 µM	> 10 µM	> 10 µM	> 10 µM
C[C@H]1O[C@]1(C)C(=O)C[C@H]1[C@](C)(O)CC[C@@]2(O)C(C)(C)CCC[C@]12C	> 10 µM	> 10 µM	> 10 µM	> 10 µM	> 10 µM	> 10 µM
CC1(C)CCC[C@]2(C)C3=CC(=O)O[C@]3(C)CC[C@@]12O	> 10 µM	> 10 µM	> 10 µM	> 10 µM	> 10 µM	> 10 µM
C/C=C(\C)C(=O)C[C@]1(O)[C@@]2(C)CCCC(C)(C)[C@]2(O)CC[C@@]1(C)O	> 10 µM	> 10 µM	> 10 µM	> 10 µM	> 10 µM	> 10 µM
C/C=C(\C)C(=O)C[C@@H]1[C@@]2(C)[C@@H](O)CCC(C)(C)[C@]2(O)CC[C@@]1(C)O	> 10 µM	> 10 µM	> 10 µM	> 10 µM	> 10 µM	> 10 µM
C/C=C(\C)C(=O)C[C@H]1[C@](C)(O)CC[C@@]2(O)C(C)(C)CCC[C@]12C	> 10 µM	> 10 µM	> 10 µM	> 10 µM	> 10 µM	> 10 µM
COc1cccc2c1C(=O)c1c(O)c3c(c(O)c1C2=O)C[C@@](O)(C(=O)CO)C[C@@H]3O[C@H]1C[C@H](N)[C@H](O)[C@H](C)O1 [DOXORUBICIN]		0.6 µM		5.2 µM	1.7 µM	6.3 µM
